Experimental data published in the supplement of paper PMC10307832.

How the values were obtained:
Experiment in all cases: relative viability (nuclei count vs DMSO), 5 days (fraction); higher = more cells survive
CUDC-101 + Dasatinib = compound: C#Cc1cccc(Nc2ncnc3cc(OC)c(OCCCCCCC(=O)NO)cc23)c1 [CUDC-101] + Cc1nc(Nc2ncc(C(=O)Nc3c(C)cccc3Cl)s2)cc(N2CCN(CCO)CC2)n1 [Dasatinib] (partner 0.075 µM)
Summary of the method: (§1)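 One day after seeding in 1536-well plates, lung cancer cell lines were dosed by pin tool. Dosing was either single-drug or a fixed anchor-drug dose plus five library-drug doses (not always all listed) in √10 steps. After 5 days, nuclei were stained in one fix-and-stain step and counted on 4× images, and relative viability is the nuclei count of treated wells over that of vehicle wells, given as the median of duplicate plates.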

Vandetanib + Palbociclib = compound: COc1cc2/c(=N/c3ccc(Br)cc3F)nc[nH]c2cc1OCC1CCN(C)CC1 [Vandetanib] + CC(=O)c1c(C)c2cnc(Nc3ccc(N4CCNCC4)cn3)nc2n(C2CCCC2)c1=O [Palbociclib] (partner 0.5 µM)
Summary of the method: as §1

Vandetanib + Crizotinib = compound: COc1cc2/c(=N/c3ccc(Br)cc3F)nc[nH]c2cc1OCC1CCN(C)CC1 [Vandetanib] + C[C@@H](Oc1cc(-c2cnn(C3CCNCC3)c2)cnc1N)c1c(Cl)ccc(F)c1Cl [Crizotinib] (partner 1 µM)
Summary of the method: as §1

Vandetanib + Phenformin = compound: COc1cc2/c(=N/c3ccc(Br)cc3F)nc[nH]c2cc1OCC1CCN(C)CC1 [Vandetanib] + N=C(N)NC(=N)NCCc1ccccc1 [Phenformin] (partner 250 µM)
Summary of the method: as §1

Cell Line | relative viability (CUDC-101 + Dasatinib; first compound 0.01 µM) | relative viability (CUDC-101 + Dasatinib; first compound 0.03162 µM) | relative viability (CUDC-101 + Dasatinib; first compound 0.1 µM) | relative viability (CUDC-101 + Dasatinib; first compound 0.3162 µM) | relative viability (CUDC-101 + Dasatinib; first compound 1 µM) | relative viability (Vandetanib + Palbociclib; first compound 0.02 µM) | relative viability (Vandetanib + Palbociclib; first compound 0.06325 µM) | relative viability (Vandetanib + Palbociclib; first compound 0.2 µM) | relative viability (Vandetanib + Palbociclib; first compound 0.6325 µM) | relative viability (Vandetanib + Palbociclib; first compound 2 µM) | relative viability (Vandetanib + Crizotinib; first compound 0.02 µM) | relative viability (Vandetanib + Crizotinib; first compound 0.06325 µM) | relative viability (Vandetanib + Crizotinib; first compound 0.2 µM) | relative viability (Vandetanib + Crizotinib; first compound 0.6325 µM) | relative viability (Vandetanib + Crizotinib; first compound 2 µM) | relative viability (Vandetanib + Phenformin; first compound 0.02 µM) | relative viability (Vandetanib + Phenformin; first compound 0.06325 µM) | relative viability (Vandetanib + Phenformin; first compound 0.2 µM) | relative viability (Vandetanib + Phenformin; first compound 0.6325 µM) | relative viability (Vandetanib + Phenformin; first compound 2 µM)
LXF-289 | 0.248 | 0.203 | 0.245 | 0.394 | 0.182 | 0.588 | 0.565 | 0.518 | 0.575 | 0.558 | 0.801 | 0.789 | 0.827 | 0.828 | 0.792 | 0.503 | 0.5 | 0.499 | 0.489 | 0.509
NCI-H23 | 0.777 | 0.795 | 0.826 | 0.856 | 0.733 | 0.416 | 0.427 | 0.489 | 0.54 | 0.495 | 0.64 | 0.573 | 0.514 | 0.527 | 0.451 | 0.763 | 0.733 | 0.8 | 0.777 | 0.742
NCI-H322M | 0.28 | 0.243 | 0.224 | 0.236 | 0.276 | 0.484 | 0.457 | 0.494 | 0.446 | 0.414 | 0.899 | 0.952 | 0.937 | 0.88 | 0.897 | 0.7 | 0.731 | 0.852 | 0.622 | 0.493
NCI-H358 | 0.157 | 0.164 | 0.166 | 0.16 | 0.131 | 0.146 | 0.162 | 0.119 | 0.133 | 0.109 | 0.659 | 0.636 | 0.137 | 0.397 | 0.321 | 0.295 | 0.275 | 0.265 | 0.217 | 0.26
NCI-H441 | 0.691 | 0.523 | 0.683 | 0.646 | 0.678 | 0.221 | 0.253 | 0.21 | 0.197 | 0.171 | 0.926 | 0.751 | 0.687 | 0.88 | 0.856 | 0.849 | 0.783 | 0.898 | 0.916 | 0.717
NCI-H460 | 0.555 | 0.506 | 0.524 | 0.602 | 0.44 | 0.147 | 0.157 | 0.189 | 0.148 | 0.166 | 0.902 | 0.786 | 0.0179 | 0.972 | 0.804 | 0.498 | 0.48 | 0.544 | 0.49 | 0.48
NCI-H520 | 0.196 | 0.166 | 0.192 | 0.259 | 0.218 | 0.254 | 0.196 | 0.293 | 0.273 | 0.256 | 0.923 | 0.894 | 0.859 | 0.772 | 0.655 | 0.563 | 0.58 | 0.481 | 0.518 | 0.548
NCI-H647 | 0.255 | 0.198 | 0.23 | 0.224 | 0.136 | 0.402 | 0.385 | 0.384 | 0.358 | 0.381 | 1.06 | 1.07 | 1.1 | 1.06 | 0.981 | 0.524 | 0.51 | 0.412 | 0.513 | 0.501
